ChEMBL document CHEMBL3352218, “Structural basis for inhibition of mycobacterial and human adenosine kinase by 7-substituted 7-(Het)aryl-7-deazaadenine ribonucleosides” (J Med Chem, 2014)
Converted amounts (≈) assume the structure as drawn. The source made the active and inactive calls. The rule behind the calls is not given here.

Legend:
[1] = molecular target: T1, Adenosine kinase (Homo sapiens, UniProt P55263); assay: Binding affinity to free human ADK expressed in Escherichia coli BL21(DE3) cells by two dimensional 15N/1H triple-resonance HSQC NMR spectroscopy
Target sequence in this assay (P55263 2-362 limits assumed): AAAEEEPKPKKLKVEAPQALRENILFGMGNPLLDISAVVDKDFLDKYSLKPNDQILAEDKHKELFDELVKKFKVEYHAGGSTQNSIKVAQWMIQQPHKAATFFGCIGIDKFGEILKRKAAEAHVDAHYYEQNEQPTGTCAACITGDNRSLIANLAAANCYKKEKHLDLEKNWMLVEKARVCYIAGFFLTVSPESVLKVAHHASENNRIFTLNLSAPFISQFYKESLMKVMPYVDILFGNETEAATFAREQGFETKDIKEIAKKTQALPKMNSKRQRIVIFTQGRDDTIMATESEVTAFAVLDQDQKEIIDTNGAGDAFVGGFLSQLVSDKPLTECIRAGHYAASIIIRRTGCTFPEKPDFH

[2] = system: Mycobacterium tuberculosis; assay: Binding affinity to Mycobacterium tuberculosis ADK expressed in Escherichia coli BL21(DE3) cells assessed as relative STD enhancements of signal from Ar at 500 uM by 1H STD NMR spectroscopy
[3] = system: Mycobacterium tuberculosis; assay: Binding affinity to Mycobacterium tuberculosis ADK expressed in Escherichia coli BL21(DE3) cells assessed as relative STD enhancements of signal from H-8 at 500 uM by 1H STD NMR spectroscopy
[4] = molecular target: T1, Adenosine kinase; assay: Binding affinity to human ADK expressed in Escherichia coli BL21(DE3) cells assessed as relative STD enhancements of signal from H-8 at 500 uM by 1H STD NMR spectroscopy
Target sequence in this assay (P55263 2-362 limits assumed): as above

[5] = molecular target: T1, Adenosine kinase; assay: Binding affinity to human ADK expressed in Escherichia coli BL21(DE3) cells assessed as relative STD enhancements of signal from Ar at 500 uM by 1H STD NMR spectroscopy
Target sequence in this assay (P55263 2-362 limits assumed): as above

[6] = system: Mycobacterium tuberculosis; assay: Binding affinity to Mycobacterium tuberculosis ADK expressed in Escherichia coli BL21(DE3) cells assessed as relative STD enhancements of signal from H-2 at 500 uM by 1H STD NMR spectroscopy
[7] = molecular target: T1, Adenosine kinase; assay: Binding affinity to human ADK expressed in Escherichia coli BL21(DE3) cells assessed as relative STD enhancements of signal from H-1' at 500 uM by 1H STD NMR spectroscopy
Target sequence in this assay (P55263 2-362 limits assumed): as above

[8] = system: Mycobacterium tuberculosis; assay: Binding affinity to Mycobacterium tuberculosis ADK expressed in Escherichia coli BL21(DE3) cells assessed as relative STD enhancements of signal from H-1' at 500 uM by 1H STD NMR spectroscopy
[9] = system: Mycobacterium tuberculosis; assay: Binding affinity to Mycobacterium tuberculosis ADK expressed in Escherichia coli BL21(DE3) cells assessed as relative STD enhancements of signal from Ar'' at 500 uM by 1H STD NMR spectroscopy
[10] = molecular target: T1, Adenosine kinase; assay: Activity of human ADK expressed in Escherichia coli BL21(DE3) cells assessed as compound phosphorylation by measuring conversion of compound to 5'-phosphate; design: concentration or dose not given beside the values
Target sequence in this assay (P55263 2-362 limits assumed): as above

[11] = system: MRC5; assay: Cytotoxicity against human MRC5 cells by MTT assay; format: functional
[12] = Inhibition of Mycobacterium tuberculosis ADK expressed in Escherichia coli BL21(DE3) cells using [3H]adenosine by liquid scintillation counting method
[13] = molecular target: T1, Adenosine kinase; assay: Binding affinity to human ADK expressed in Escherichia coli BL21(DE3) cells in presence of ATPgammaS by two dimensional 15N/1H triple-resonance HSQC NMR spectroscopy
Target sequence in this assay (P55263 2-362 limits assumed): as above

[14] = molecular target: T1, Adenosine kinase; assay: Inhibition of human ADK expressed in Escherichia coli BL21(DE3) cells using [3H]adenosine by liquid scintillation counting method
Target sequence in this assay (P55263 whole entry): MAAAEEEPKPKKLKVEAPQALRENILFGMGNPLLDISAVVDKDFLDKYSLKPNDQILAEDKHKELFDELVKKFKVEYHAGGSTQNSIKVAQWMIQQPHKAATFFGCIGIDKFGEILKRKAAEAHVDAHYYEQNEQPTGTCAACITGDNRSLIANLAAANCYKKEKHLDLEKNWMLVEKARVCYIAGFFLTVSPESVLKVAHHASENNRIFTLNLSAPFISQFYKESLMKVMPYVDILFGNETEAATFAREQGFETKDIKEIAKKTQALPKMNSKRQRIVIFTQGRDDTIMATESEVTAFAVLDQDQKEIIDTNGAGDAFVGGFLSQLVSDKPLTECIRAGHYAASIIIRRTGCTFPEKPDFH

[15] = system: Mycobacterium tuberculosis; assay: Antimycobacterial activity against Mycobacterium tuberculosis H37Rv My 331/88 assessed as microbial growth inhibition incubated for 14 days; format: functional; conditions: H37Rv My 331/88, 336 h
[16] = system: Mycobacterium tuberculosis; assay: Binding affinity to Mycobacterium tuberculosis ADK expressed in Escherichia coli BL21(DE3) cells assessed as relative STD enhancements of signal from Ar' at 500 uM by 1H STD NMR spectroscopy
[17] = system: Mycobacterium tuberculosis; assay: Activity of Mycobacterium tuberculosis ADK expressed in Escherichia coli BL21(DE3) cells assessed as compound phosphorylation by measuring conversion of compound to 5'-phosphate
[18] = molecular target: T1, Adenosine kinase; assay: Binding affinity to human ADK expressed in Escherichia coli BL21(DE3) cells in presence of adenosine by two dimensional 15N/1H triple-resonance HSQC NMR spectroscopy
[19] = system: BJ; assay: Cytotoxicity against human BJ cells by MTT assay; format: functional
[20] = molecular target: T1, Adenosine kinase; assay: Binding affinity to human ADK expressed in Escherichia coli BL21(DE3) cells assessed as relative STD enhancements of signal from H-2 at 500 uM by 1H STD NMR spectroscopy
[21] = molecular target: T1, Adenosine kinase; assay: Mixed competitive inhibition of human ADK expressed in Escherichia coli BL21(DE3) cells using varying adenosine levels by Lineweaver-Burk plot
[22] = molecular target: T1, Adenosine kinase; assay: Mixed uncompetitive inhibition of human ADK expressed in Escherichia coli BL21(DE3) cells using varying ATP levels by Lineweaver-Burk plot
[23] = system: Mycobacterium tuberculosis; assay: Mixed competitive inhibition of Mycobacterium tuberculosis ADK expressed in Escherichia coli BL21(DE3) cells using varying ATP levels by Lineweaver-Burk plot
[24] = system: Mycobacterium tuberculosis; assay: Mixed competitive inhibition of Mycobacterium tuberculosis ADK expressed in Escherichia coli BL21(DE3) cells using varying adenosine levels by Lineweaver-Burk plot

SMILES	Activity [3] [%]	Activity [4] [%]	Activity [6] [%]	Activity [7] [%]	Activity [8] [%]	Activity [10] [%]	CC50 [11] [µM]	IC50 [12] [µM]	IC50 [14] [µM]	MIC [15] [µM]	Activity [17]	CC50 [19] [µM]	Activity [20] [%]	further results
Nc1ncnc2c1c(-c1ccco1)cn2[C@@H]1O[C@H](CO)[C@@H](O)[C@H]1O	29	36	43	100	100	8	9.49	2.1	> 5	62.5 (≈ 20.8 µg/mL)	inactive	18.3	64	Activity [1]: Active; Activity [2]: 38%; Activity [5]: 74%; Activity [9]: 39%; Activity [13]: Active; Activity [16]: 31%; Activity [18]: Active
Nc1ncnc2c1c(-c1nccs1)cn2[C@@H]1O[C@H](CO)[C@@H](O)[C@H]1O	33	41	37	100	100	3	25.1	4.5	2.3	125 (≈ 43.7 µg/mL)	inactive	> 100	57	Activity [1]: Active; Activity [2]: 34%; Activity [5]: 52%; Activity [13]: Active; Activity [16]: 45%; Activity [18]: Active
Nc1ncnc2c1c(-c1cccc3c1Oc1ccccc1S3)cn2[C@@H]1O[C@H](CO)[C@@H](O)[C@H]1O	68	39	50	100	100		95.1	0.3	> 20	16 (≈ 7.43 µg/mL)	inactive	> 100	33	Activity [1]: Active; Activity [2]: 83%; Activity [5]: 60%; Activity [13]: Active; Activity [18]: Active
Nc1ncnc2c1ncn2[C@@H]1O[C@H](COP(=O)(O)OP(=O)(O)OP(=O)(O)O)[C@@H](O)[C@H]1O	24	< 1	57	100	100								< 1	
Nc1ncnc2c1c(-c1ccsc1)cn2[C@@H]1O[C@H](CO)[C@@H](O)[C@H]1O						2	42.5	6.6		8 (≈ 2.79 µg/mL)	inactive	12.9		
Nc1ncnc2c1c(-c1ccoc1)cn2[C@@H]1O[C@H](CO)[C@@H](O)[C@H]1O						9	67.9	> 10		16 (≈ 5.32 µg/mL)	inactive	91.5		
C#Cc1cn([C@@H]2O[C@H](CO)[C@@H](O)[C@H]2O)c2ncnc(N)c12	54	17	63	100	100	62	13.4	0.33		8 (≈ 2.32 µg/mL)	inactive	43.1	33	Activity [1]: Active; inhibition [21]: Active; Activity [13]: Active; inhibition [22]: Active; inhibition [23]: Active; Activity [18]: Active; inhibition [24]: Active
Nc1ncnc2c1c(-c1cc[nH]n1)cn2[C@@H]1O[C@H](CO)[C@@H](O)[C@H]1O						7	0.18	> 10		> 250	inactive	9.51		
Nc1ncnc2c1c(-c1cn[nH]c1)cn2[C@@H]1O[C@H](CO)[C@@H](O)[C@H]1O						9	71.2	> 5	> 10	125 (≈ 41.5 µg/mL)	inactive	48.9		
Nc1ncnc2c1c(-c1cc[nH]c1)cn2[C@@H]1O[C@H](CO)[C@@H](O)[C@H]1O						20	5.05	> 10	4.5	62.5 (≈ 20.7 µg/mL)	inactive	10.1		
Nc1ncnc2c1c(-c1ccc[nH]1)cn2[C@@H]1O[C@H](CO)[C@@H](O)[C@H]1O						6	99.6	4.4	> 20	62.5 (≈ 20.7 µg/mL)	inactive	> 100		
Nc1ncnc2c1c(-c1c[nH]nn1)cn2[C@@H]1O[C@H](CO)[C@@H](O)[C@H]1O						37	0.1	> 10	> 20	> 250	inactive	0.08		
Nc1ncnc2c1c(-c1cccs1)cn2[C@@H]1O[C@H](CO)[C@@H](O)[C@H]1O						2	39.4	> 10		8 (≈ 2.79 µg/mL)	inactive	65.4		
Nc1ncnc2c1c(-c1cccc3c1Sc1ccccc1S3)cn2[C@@H]1O[C@H](CO)[C@@H](O)[C@H]1O							68.5	2.06	> 10	62.5 (≈ 30 µg/mL)	inactive	> 100		
COc1cc(-c2cn([C@@H]3O[C@H](CO)[C@@H](O)[C@H]3O)c3ncnc(N)c23)cc(OC)c1OC							> 100	> 10	> 10	8 (≈ 3.46 µg/mL)	inactive	> 100		
Nc1ncnc2c1c(-c1ccc(COc3cccc4ccccc34)cc1)cn2[C@@H]1O[C@H](CO)[C@@H](O)[C@H]1O							92.1	> 10	> 20	16 (≈ 7.98 µg/mL)	inactive	> 100		
Nc1ncnc2c1c(-c1cccc3c1oc1ccccc13)cn2[C@@H]1O[C@H](CO)[C@@H](O)[C@H]1O							100	0.6	> 10	4 (≈ 1.73 µg/mL)	inactive	> 100		
Nc1ncnc2c1c(-c1ncc[nH]1)cn2[C@@H]1O[C@H](CO)[C@@H](O)[C@H]1O						19	0.15	> 3	> 20	> 250	inactive	1.48		
Nc1ncnc2c1c(-c1c[nH]cn1)cn2[C@@H]1O[C@H](CO)[C@@H](O)[C@H]1O						47	0.33	> 10	13	> 250	inactive	0.12		
Nc1ncnc2c1c(-c1ccc3c(c1)OCO3)cn2[C@@H]1O[C@H](CO)[C@@H](O)[C@H]1O							46	> 10	> 10	8 (≈ 3.09 µg/mL)	inactive	15.5		
Nc1ncnc2c1ncn2[C@@H]1O[C@H](CO)[C@@H](O)[C@H]1O	58	20	44	100	100								8	
CC(C)c1cccc(-c2cn([C@@H]3O[C@H](CO)[C@@H](O)[C@H]3O)c3ncnc(N)c23)c1	42	72	42	100	100		> 100	2.33	3.3	32 (≈ 12.3 µg/mL)	inactive	> 100	72	Activity [1]: Active; Activity [2]: 37%; Activity [5]: 52%; Activity [13]: Active; Activity [18]: Active
